Source: patent US10265303B2, “Hyperphenylalaninemia and treatments thereof” (BERGEN TEKNOLOGIOVERFØRING AS, priority 2015, dated 2019)
Where a chain is given by its changes, count along the chain named.

What was measured:
human wild-type PAH [1] = molecular target: T1, human wild-type PAH (Homo sapiens, UniProt P00439); assay: PAH activity in lysates of HEK293 cells permanently expressing human wild-type PAH; assay type: cell-based; details: 1% DMSO, 8 h; for PAH activity-cells (%): 0.04 mg/ml compound, Table 3; for increase of hPAH activity with respect to the control (FIG. 6): average compound concentration 144.9 μM
T1 construct: expressed in transfected cells
T1 sequence (P00439 1-452): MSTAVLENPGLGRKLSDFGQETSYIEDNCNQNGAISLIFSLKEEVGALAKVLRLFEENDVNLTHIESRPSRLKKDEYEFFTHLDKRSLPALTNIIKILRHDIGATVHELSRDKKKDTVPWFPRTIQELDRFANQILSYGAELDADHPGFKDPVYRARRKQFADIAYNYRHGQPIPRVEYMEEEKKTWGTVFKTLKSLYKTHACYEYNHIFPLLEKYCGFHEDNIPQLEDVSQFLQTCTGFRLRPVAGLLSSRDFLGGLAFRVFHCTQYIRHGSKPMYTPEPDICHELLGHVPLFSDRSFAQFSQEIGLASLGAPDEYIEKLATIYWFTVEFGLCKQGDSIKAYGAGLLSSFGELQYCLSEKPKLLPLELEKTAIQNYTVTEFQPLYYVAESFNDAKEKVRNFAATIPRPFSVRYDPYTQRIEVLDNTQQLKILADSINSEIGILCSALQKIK
Protocol: (§1) Human embryonic kidney cells (HEK293; Life Technologies™) permanently expressing WT-hPAH, prepared with the Flp-In system (Life Technologies™) were kindly provided by Per Knappskog, Haukeland University Hospital. About 1 million cells were grown in DMEM medium containing 4.5 g/l glucose, 10% (v/v) fetal calf serum, 0.25 mg/ml gentamycine, 2 mM L-glutamine and 50 μg/ml hygromycin B, and after 24 h medium was changed and the test compounds were added at a concentration of 0.02 mg/ml (1% DMSO). Eight hours later, the cells were harvested, and the pellets frozen in dry ice and stored at −80° C. […] To prepare the cell extracts, the frozen cell pellets were thawed in TBS (+protease inhibitor) buffer and cells were homogenized with 0.1% TX-100, incubated 15 minutes at 4° C. and extracts were clarified by centrifugation 20000 g for 15 min at 4° C. Protein concentrations were normalized using a Direct Detect Spectrometer (Merck Millipore).
The 7 selected compounds as well as the first generation pharmacological chaperones (Compounds III and IV) were further analyzed in the presence and absence of BH2 (200 μM), added as precursor of BH4, to account for additive effects. […]
as §1, with “and the compounds were” for “and the test compounds were”, “concentration of 0.04 mg/ml (1%” for “concentration of 0.02 mg/ml (1%”, “for 15 minutes at 4°” for “for 15 min at 4°”

hPAH = molecular target: T2, hPAH (Homo sapiens, UniProt P00439); assay: SPR screening and affinity determination on immobilized hPAH (Biacore T200); assay type: binding; details: for Kd: SPR, 25° C., compound 0-500 μM in 5% DMSO, affinities said to be overestimated, relative KD reliable, read-out: KD (μM) ± SER
T2 sequence (P00439 1-452): T1 sequence (P00439 1-452)
Protocol: For detailed determination of binding affinity of Compound 53 and derivatives (FIG. 4) SPR was performed on a Biacore T200 (GE Healthcare Life Sciences) at a temperature of 25° C. A hPAH solution at 0.08 μg/μl in a final volume of 200 μl in acetate buffer pH 5.0 was immobilized onto series S sensor chip CM5 by the standard amine coupling procedure at a flow rate of 30 μl/min and PBS-P+ buffer as running buffer aiming for RU 20000. After the coupling reaction the surface of the sensor chip was washed to eliminate unbound species with HBS buffer (0.01 M NaHepes pH 7.4, 0.15 M NaCI) at steady flow of 20 μl/min for 1 hour until the baseline drift was around 0.05 RU/s; note that an early injection of 40 μl dithiothreitol (DTT) 10 mM in HBS allowed for this reduced washing time.
For the screening, compounds were assayed at a concentration of 200 μM, with 5% DMSO in duplicates, including negative controls with 5% DMSO, positive controls, with 200 μM BH2 and solvent correction was also performed. For KD calculations, a compound concentration 0-500 μM (in 5% DMSO) were applied at otherwise analogous experimental design and analyses were performed using Biacore T200 Evaluation Software, version 2.0 (GE Healthcare Life Sciences).
All the responses from the compounds of the screening were subjected to blank subtraction (negative control 5% DMSO), molecular weight adjustment and solvent correction to account for differences in bulk response. Next a cut-off value for the screening was selected based on the response of the positive control of our experiments: RU BH2+3*SD (2.88+3*1.79=8.27). In this manner, from the 11 derivatives of Compound 53 tested (see FIG. 4) we weeded out those compounds with a lower response than 8.27, namely #53.2, #53.9 and #53.11.
In addition and for the rest of the compounds which continued our workflow, binding affinities were determined and the results are shown in the following table. The selected conditions to measure affinity are selected for high throughput measurements, but the affinities are overestimated though the relative KD for the different compounds are reliable.

human wild-type PAH [2] = molecular target: T1, human wild-type PAH; assay: PAH immunoreactive protein level (Western blot) in HEK293 cells permanently expressing human wild-type PAH; assay type: cell-based; details: BH2 200 μM alone, 8 h, 1% DMSO
Protocol: as §1
The 7 selected compounds as well as the first generation pharmacological chaperones (Compounds III and IV) were further analyzed in the presence and absence of BH2 (200 μM), added as precursor of BH4, to account for additive effects. A higher concentration of compound was also used 0.04 mg/ml (average of 116.7 μM) at otherwise same experimental conditions.

R261Q-PAH = molecular target: T3, R261Q-PAH (Homo sapiens, UniProt P00439, R261Q); assay: PAH protein level and activity in HEK293 EBNA cells transiently expressing PKU mutant R261Q; assay type: cell-based; details: 200 μM, 24 h, 1% DMSO
T3 construct: expressed in transfected cells; host or cells: HEK293 EBNA, transient, pcDNA3-PAH
T3 sequence (P00439 1-452 R261Q): T1 sequence (P00439 1-452) with R261Q
Protocol: (§2) Cell lysates were prepared as indicated above.

I65T-PAH = molecular target: T4, I65T-PAH (Homo sapiens, UniProt P00439, I65T); assay: PAH protein level and activity in HEK293 EBNA cells transiently expressing PKU mutant I65T; assay type: cell-based; details: 200 μM, 24 h, 1% DMSO
T4 construct: expressed in transfected cells; host or cells: HEK293 EBNA, transient, pcDNA3-PAH
T4 sequence (P00439 1-452 I65T): T1 sequence (P00439 1-452) with I65T
Protocol: as §2

[3] = molecular target: dihydrofolate reductase (DHFR); details: read-out: IC50 (DHFR); ChEMBL database; cited from earlier work

Row | Compound | PAH activity-cells (%) (human wild-type PAH [1]) | Kd (hPAH) | further results
1 | Nc1nc2c(c(=O)[nH]1)C(c1ccc(Cl)cc1Cl)CC(=O)N2 (racemic) [c53.10] | 155 ± 13% | 22.9 ± 2.7 µM | increase of hPAH activity with respect to the control (FIG. 6) (human wild-type PAH [1]): around 40%
2 | COc1ccc(C2CC(=O)Nc3nc(N)[nH]c(=O)c32)cc1OC (racemic) [c53.16] | 146 ± 10% | 76.3 ± 26.4 µM | –
3 | Nc1nc2c(c(=O)[nH]1)C(c1ccc3c(c1)OCO3)CC(=O)N2 (racemic) [c53.17] | 206 ± 10% | 11 ± 3.7 µM | –
4 | COc1ccc(C2CC(=O)Nc3nc(N)[nH]c(=O)c32)cc1 (racemic) [c53.19] | 170 ± 17% | 37.2 ± 23.7 µM | –
5 | COc1cccc(C2CC(=O)Nc3nc(N)[nH]c(=O)c32)c1 (racemic) [c53.20] | 206 ± 5% | 23.2 ± 11.7 µM | –
6 | Nc1nc2c(c(=O)[nH]1)C(c1ccc(Cl)cc1)CC(=O)N2 (racemic) [c53.22] | 154 ± 16% | 30.1 ± 6.5 µM | –
7 | CSc1nc2c(c(=O)[nH]1)C(c1ccc3c(c1)OCO3)CC(=O)N2 (racemic) [c53.26] | 109 ± 5% | 62.1 ± 30.7 µM | –
8 | COc1cc(C2CC(=O)Nc3nc(N)ccc32)cc(Cl)c1OC (racemic) [c53.29] | 155 ± 7% | 191 ± 20 µM | –
9 | COc1ccc(C2CC(=O)Nc3nc(N)ccc32)cc1O (racemic) [c53.31] | 125 ± 8% | 55.9 ± 6.7 µM | –
10 | Nc1ccc2c(n1)NC(=O)CC2c1ccc2c(c1)OCCO2 (racemic) [c53.32] | – | 102 ± 11 µM | –
11 | COc1ccc(C2CC(=O)Nc3nc(N)ccc32)c(OC)c1OC (racemic) [c53.33] | – | 182 ± 32 µM | –
12 | Nc1nc2c(c(=O)[nH]1)C(c1ccc3c(c1)OCO3)CC(=O)N2 (racemic) [c53.35] | – | 23.7 ± 5 µM | –
13 | Nc1nc2c(c(=O)[nH]1)C(c1cccc(Cl)c1)CC(=O)N2 (racemic) [c53.40] | – | 11.6 ± 1.6 µM | –
14 | Nc1nc2c(c(=O)[nH]1)C(c1cccc3ccccc13)CC(=O)N2 (racemic) [c53.41] | – | 12.6 ± 6.4 µM | –
15 | C[C@H](O)[C@H](O)C1=Nc2c(nc(N)[nH]c2=O)NC1 [BH2] | – | – | stimulating effect on PAH protein (human wild-type PAH [2]): 24.8%; PAH activity, mutant R261Q (R261Q-PAH): increased; hPAH protein level, mutant R261Q (R261Q-PAH): increased; PAH activity, mutant I65T (I65T-PAH): increased; hPAH protein level, mutant I65T (I65T-PAH): increased; stimulating effect on PAH activity (human wild-type PAH [1]; BH2 200 μM alone): 21.7%; SPR screening response (blank-subtracted, MW-adjusted, solvent-corrected) (hPAH; 200 μM, 5% DMSO, duplicates, cut-off 8.27): 2.88 RU
16 | COc1cc(Cc2ccc(N)nc2N)cc(OC)c1O [CHEMBL 128600] | – | – | IC50 [3]: 10000 µM
17 | COc1ccc(Cc2cnc(N)nc2N)cc1OC [c53.1] | 130 ± 8% | 104 ± 14 µM | –
18 | COc1cc(Cc2ccc(N)nc2N)cc(OC)c1OC [c53.4] | 165 ± 28% | 45.2 ± 9.1 µM | increase of hPAH activity with respect to the control (FIG. 6) (human wild-type PAH [1]): around 40%
19 | COc1cc(C(c2c[nH]c3ccccc23)c2c[nH]c3ccccc23)cc(OC)c1OC [c53.5] | – | 370 ± 228 µM | –
20 | CCOc1ccc(Cc2cnc(S)nc2N)cc1 [c53.6] | 120 ± 12% | 103 ± 48.8 µM | –
21 | Nc1ncc(Cc2ccc3c(c2)OCO3)c(N)n1 [c53.7] | 119 ± 5% | 6.9 ± 4.9 µM | –
22 | Nc1nc(N)c(Cc2ccc3c(c2)OCO3)c(N)n1 [c53.14] | 175 ± 23% | 24.7 ± 12.1 µM | –
